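Tested at 5 concentrations; 48 h exposure; 96-well plates; endpoints linearly interpolated, else capped at highest concentration. TGI marks complete inhibition of growth.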
Columns and labels:
Experiment in all cases: NCI anticancer screen, dose series, 48 h
786-0 renal = system: 786-0 renal
A498 renal = system: A498 renal
A549 NSCLC = system: A549 NSCLC
ACHN renal = system: ACHN renal
BT-549 breast = system: BT-549 breast
CAKI-1 renal = system: CAKI-1 renal
CCRF-CEM leukemia = system: CCRF-CEM leukemia
COLO 205 colon = system: COLO 205 colon
DU-145 prostate = system: DU-145 prostate
EKVX NSCLC = system: EKVX NSCLC
HCC-2998 colon = system: HCC-2998 colon
HCT-116 colon = system: HCT-116 colon
HCT-15 colon = system: HCT-15 colon
HL-60(TB) leukemia = system: HL-60(TB) leukemia
HOP-62 NSCLC = system: HOP-62 NSCLC
HOP-92 NSCLC = system: HOP-92 NSCLC
HS 578T breast = system: HS 578T breast
HT29 colon = system: HT29 colon
IGROV1 ovarian = system: IGROV1 ovarian
K-562 leukemia = system: K-562 leukemia
KM12 colon = system: KM12 colon
LOX IMVI melanoma = system: LOX IMVI melanoma
M14 melanoma = system: M14 melanoma
MALME-3M melanoma = system: MALME-3M melanoma
MCF7 breast = system: MCF7 breast
MDA-MB-231 breast = system: MDA-MB-231 breast
MDA-MB-435 = system: MDA-MB-435
MDA-N = system: MDA-N
MOLT-4 leukemia = system: MOLT-4 leukemia
NCI-H226 lung = system: NCI-H226 lung
NCI-H23 lung = system: NCI-H23 lung
NCI-H460 lung = system: NCI-H460 lung
NCI-H522 lung = system: NCI-H522 lung
NCI/ADR-RES ovarian = system: NCI/ADR-RES ovarian
OVCAR-3 ovarian = system: OVCAR-3 ovarian
OVCAR-4 ovarian = system: OVCAR-4 ovarian
OVCAR-5 ovarian = system: OVCAR-5 ovarian
OVCAR-8 ovarian = system: OVCAR-8 ovarian
PC-3 prostate = system: PC-3 prostate
RPMI-8226 leukemia = system: RPMI-8226 leukemia
RXF 393 renal = system: RXF 393 renal
SF-268 CNS = system: SF-268 CNS
SF-295 CNS = system: SF-295 CNS
SF-539 CNS = system: SF-539 CNS
SK-MEL-2 melanoma = system: SK-MEL-2 melanoma
SK-MEL-28 melanoma = system: SK-MEL-28 melanoma
SK-MEL-5 melanoma = system: SK-MEL-5 melanoma
SK-OV-3 ovarian = system: SK-OV-3 ovarian
SN12C renal = system: SN12C renal
SNB-19 CNS = system: SNB-19 CNS
SR leukemia = system: SR leukemia
SW-620 colon = system: SW-620 colon
T-47D breast = system: T-47D breast
TK-10 renal = system: TK-10 renal
U251 CNS = system: U251 CNS
UACC-257 melanoma = system: UACC-257 melanoma
UO-31 renal = system: UO-31 renal
UACC-62 melanoma = system: UACC-62 melanoma
SNB-75 CNS = system: SNB-75 CNS

`COC(=O)c1c(O)ccc2c1c1c(n2CCc2ccccc2)C(=O)c2ccccc2C1=O` was tested, and the TGI (786-0 renal) was 31 µM, the TGI (A498 renal) was 31.5 µM and the TGI (A549 NSCLC) was 22.6 µM. The TGI (ACHN renal) was 24.5 µM, the TGI (BT-549 breast) was 29.6 µM and the TGI (CAKI-1 renal) was 27.5 µM. The TGI (CCRF-CEM leukemia) was 50.8 µM, the TGI (COLO 205 colon) was 3.24 µM and the TGI (DU-145 prostate) was 40.7 µM. The TGI (EKVX NSCLC) was 36.5 µM, the TGI (HCC-2998 colon) was 4.96 µM and the TGI (HCT-116 colon) was 23.3 µM. It also gave a TGI (HCT-15 colon) of 24.9 µM, a TGI (HL-60(TB) leukemia) of 37.9 µM and a TGI (HOP-62 NSCLC) of 36.6 µM. For the same molecule, the TGI (HOP-92 NSCLC) was 31.4 µM, the TGI (HS 578T breast) was 36.4 µM and the TGI (HT29 colon) was 27.1 µM. The TGI (IGROV1 ovarian) was 24.9 µM, the TGI (K-562 leukemia) was 25.8 µM and the TGI (KM12 colon) was 26.4 µM. For the same molecule, the TGI (LOX IMVI melanoma) was 38.4 µM, the TGI (M14 melanoma) was 30.3 µM and the TGI (MALME-3M melanoma) was 29.6 µM. For the same molecule, the TGI (MCF7 breast) was 30.2 µM, the TGI (MDA-MB-231 breast) was 29.7 µM and the TGI (MDA-MB-435) was 20.6 µM. For the same molecule, the TGI (MDA-N) was 24.8 µM, the TGI (MOLT-4 leukemia) was 17.3 µM and the TGI (NCI-H226 lung) was 34.1 µM. It also gave a TGI (NCI-H23 lung) of 25.6 µM, a TGI (NCI-H460 lung) of 18 µM and a TGI (NCI-H522 lung) of 22.7 µM. The TGI (NCI/ADR-RES ovarian) was 23.6 µM, the TGI (OVCAR-3 ovarian) was 19.9 µM and the TGI (OVCAR-4 ovarian) was 20.7 µM. It also gave a TGI (OVCAR-5 ovarian) of 37.7 µM, a TGI (OVCAR-8 ovarian) of 22.1 µM and a TGI (PC-3 prostate) of 25.4 µM. For the same molecule, the TGI (RPMI-8226 leukemia) was 32.1 µM, the TGI (RXF 393 renal) was 34.9 µM and the TGI (SF-268 CNS) was 28.8 µM. The TGI (SF-295 CNS) was 36.2 µM, the TGI (SF-539 CNS) was 30.8 µM and the TGI (SK-MEL-2 melanoma) was 29.8 µM. For the same molecule, the TGI (SK-MEL-28 melanoma) was 30 µM, the TGI (SK-MEL-5 melanoma) was 25.3 µM and the TGI (SK-OV-3 ovarian) was 32.3 µM. The TGI (SN12C renal) was 24.9 µM, the TGI (SNB-19 CNS) was 32.8 µM and the TGI (SR leukemia) was 22.7 µM. It also gave a TGI (SW-620 colon) of 30.3 µM, a TGI (T-47D breast) of 20.8 µM and a TGI (TK-10 renal) of 24.1 µM. It also gave a TGI (U251 CNS) of 26.8 µM, a TGI (UACC-257 melanoma) of 32.3 µM and a TGI (UO-31 renal) of 23.1 µM.

Work on `O=C(CCc1ccc(O)cc1)NCCc1cccc(O)c1` yielded a TGI (786-0 renal) greater than 50 µM, a TGI (A498 renal) greater than 50 µM and a TGI (A549 NSCLC) greater than 50 µM. It also gave a TGI (ACHN renal) greater than 50 µM, a TGI (BT-549 breast) greater than 50 µM and a TGI (CAKI-1 renal) greater than 50 µM. It also gave a TGI (CCRF-CEM leukemia) greater than 50 µM, a TGI (COLO 205 colon) greater than 50 µM and a TGI (DU-145 prostate) greater than 50 µM. It also gave a TGI (EKVX NSCLC) greater than 50 µM, a TGI (HCT-116 colon) greater than 50 µM and a TGI (HCT-15 colon) greater than 50 µM. For the same molecule, the TGI (HL-60(TB) leukemia) was greater than 50 µM, the TGI (HOP-62 NSCLC) was greater than 50 µM and the TGI (HOP-92 NSCLC) was greater than 50 µM. It also gave a TGI (HS 578T breast) greater than 50 µM, a TGI (HT29 colon) greater than 50 µM and a TGI (IGROV1 ovarian) greater than 50 µM. For the same molecule, the TGI (K-562 leukemia) was greater than 50 µM, the TGI (KM12 colon) was greater than 50 µM and the TGI (LOX IMVI melanoma) was greater than 50 µM. For the same molecule, the TGI (M14 melanoma) was greater than 50 µM, the TGI (MALME-3M melanoma) was greater than 50 µM and the TGI (MCF7 breast) was greater than 50 µM. The TGI (MDA-MB-231 breast) was greater than 50 µM, the TGI (MDA-MB-435) was greater than 50 µM and the TGI (MDA-N) was greater than 50 µM. The TGI (MOLT-4 leukemia) was greater than 50 µM, the TGI (NCI-H23 lung) was greater than 50 µM and the TGI (NCI-H460 lung) was greater than 50 µM. For the same molecule, the TGI (NCI-H522 lung) was greater than 50 µM, the TGI (NCI/ADR-RES ovarian) was greater than 50 µM and the TGI (OVCAR-3 ovarian) was greater than 50 µM. The TGI (OVCAR-4 ovarian) was greater than 50 µM, the TGI (OVCAR-5 ovarian) was greater than 50 µM and the TGI (OVCAR-8 ovarian) was greater than 50 µM. It also gave a TGI (PC-3 prostate) greater than 50 µM, a TGI (RXF 393 renal) greater than 50 µM and a TGI (SF-268 CNS) greater than 50 µM. The TGI (SF-295 CNS) was greater than 50 µM, the TGI (SF-539 CNS) was greater than 50 µM and the TGI (SK-MEL-2 melanoma) was greater than 50 µM. The TGI (SK-MEL-28 melanoma) was greater than 50 µM, the TGI (SK-MEL-5 melanoma) was greater than 50 µM and the TGI (SK-OV-3 ovarian) was greater than 50 µM. For the same molecule, the TGI (SN12C renal) was greater than 50 µM, the TGI (SNB-19 CNS) was greater than 50 µM and the TGI (SR leukemia) was greater than 50 µM. It also gave a TGI (T-47D breast) greater than 50 µM, a TGI (TK-10 renal) greater than 50 µM and a TGI (U251 CNS) greater than 50 µM. For the same molecule, the TGI (UACC-257 melanoma) was greater than 50 µM, the TGI (UACC-62 melanoma) was greater than 50 µM and the TGI (UO-31 renal) was greater than 50 µM.

Molecule `COc1ccccc1NCc1nnc(CCCCCCCCc2nnc(CNc3ccccc3OC)o2)o1` has a TGI (786-0 renal) greater than 100 µM, a TGI (A498 renal) greater than 100 µM and a TGI (A549 NSCLC) greater than 100 µM. For the same molecule, the TGI (ACHN renal) was greater than 100 µM, the TGI (BT-549 breast) was greater than 100 µM and the TGI (CAKI-1 renal) was greater than 100 µM. The TGI (CCRF-CEM leukemia) was greater than 100 µM, the TGI (COLO 205 colon) was greater than 100 µM and the TGI (DU-145 prostate) was greater than 100 µM. It also gave a TGI (EKVX NSCLC) greater than 100 µM, a TGI (HCC-2998 colon) greater than 100 µM and a TGI (HCT-116 colon) greater than 100 µM. For the same molecule, the TGI (HCT-15 colon) was greater than 100 µM, the TGI (HOP-62 NSCLC) was greater than 100 µM and the TGI (HOP-92 NSCLC) was greater than 100 µM. The TGI (HS 578T breast) was greater than 100 µM, the TGI (HT29 colon) was greater than 100 µM and the TGI (K-562 leukemia) was greater than 100 µM. The TGI (KM12 colon) was greater than 100 µM, the TGI (LOX IMVI melanoma) was greater than 100 µM and the TGI (M14 melanoma) was greater than 100 µM. For the same molecule, the TGI (MALME-3M melanoma) was greater than 100 µM, the TGI (MCF7 breast) was greater than 100 µM and the TGI (MDA-MB-231 breast) was greater than 100 µM. The TGI (MDA-MB-435) was greater than 100 µM, the TGI (MDA-N) was greater than 100 µM and the TGI (MOLT-4 leukemia) was greater than 100 µM. The TGI (NCI-H23 lung) was greater than 100 µM, the TGI (NCI-H460 lung) was greater than 100 µM and the TGI (NCI-H522 lung) was greater than 100 µM. The TGI (NCI/ADR-RES ovarian) was greater than 100 µM, the TGI (OVCAR-3 ovarian) was greater than 100 µM and the TGI (OVCAR-4 ovarian) was greater than 100 µM. The TGI (OVCAR-5 ovarian) was greater than 100 µM, the TGI (OVCAR-8 ovarian) was greater than 100 µM and the TGI (PC-3 prostate) was greater than 100 µM. The TGI (RPMI-8226 leukemia) was greater than 100 µM, the TGI (RXF 393 renal) was greater than 100 µM and the TGI (SF-268 CNS) was greater than 100 µM. The TGI (SF-295 CNS) was greater than 100 µM, the TGI (SK-MEL-2 melanoma) was greater than 100 µM and the TGI (SK-MEL-5 melanoma) was greater than 100 µM. The TGI (SK-OV-3 ovarian) was greater than 100 µM, the TGI (SN12C renal) was greater than 100 µM and the TGI (SNB-19 CNS) was greater than 100 µM. The TGI (SNB-75 CNS) was greater than 100 µM, the TGI (SR leukemia) was greater than 100 µM and the TGI (T-47D breast) was greater than 100 µM. The TGI (TK-10 renal) was greater than 100 µM, the TGI (U251 CNS) was greater than 100 µM and the TGI (UACC-257 melanoma) was greater than 100 µM. The TGI (UACC-62 melanoma) was greater than 100 µM and the TGI (UO-31 renal) was greater than 100 µM.

— PubChem BioAssay (NCI)
